Structures can show the parent of a compound that is named as a salt. Where two headings read alike, the source gives them in different places.
Assays:
avoidance behavior = assay: Discrete Avoidance - Rats (avoidance block / escape block); format: in vivo, rat
Description: For example, by one procedure, trained rats are placed in experimental chambers equipped with a response lever, a steel grid floor for delivery of electric shock and a loudspeaker for presentation of auditory stimuli. […] The rats can terminate a trial at any point by depression of the response lever. A response during the initial fifteen-second warning tone ends the trial before shock delivery and is considered an avoidance response, while a response occurring during shock delivery is an escape response. Trials are presented every two minutes during a one-hour test session (30 trials per session). […] Compounds are administered to a minimum of three to four rats at each dose level over a range of doses. Rats receive vehicle alone, during control sessions prior to drug administration. Each rat is tested daily or weekly, after a single drug administration, until avoidance behavior returns to pre-drug baseline levels. The session is divided into three consecutive twenty minute (ten trial) segments. Response counts are summed over all subjects at a given dose within each segment. […] This number is expressed as a percentage of the total trials within the segment. […] The lowest dose which produced a 20% block of escape responding (EBD 20) is read from a graphic dose-effect plot. In obtaining these values, percent effect is plotted against the log dose.

[1] = tested on: Confinement Motor Activity; assay: Confinement Motor Activity; format: in vivo; details: Rat, PO, 1 Hour Post-Drug; read-out: Confinement Motor Activity DD50
[2] = tested on: Dopamine Turnover-Brain Limbic and Remainder; assay: Dopamine Turnover-Brain, Limbic and Remainder; format: in vivo; details: Rat, 1 Hour Post-Drug
[3] = tested on: Dopamine Turnover-Brain Caudate; assay: Dopamine Turnover-Brain, Caudate; format: in vivo; details: Rat, 1 Hour Post-Drug
[4] = tested on: Apomorphine Induced Emesis; assay: Apomorphine Induced Emesis antagonism (Dogs); format: in vivo, dog; details: Canis lupus familiaris; Dog, SC, 1 Hour Post-Drug; read-out: Anti-Apomorphine Emesis ED50
Continuous Avoidance = Continuous Avoidance (Squirrel Monkeys); format: in vivo, squirrel monkey; details: Primates; Squirrel Monkey, PO, 1 Hour Post-Drug; read-out: Continuous Avoidance MED Shocks
[5] = tested on: Amphetamine Induced Rotation; assay: Amphetamine Induced Rotation antagonism (S. Nigra Lesioned Rats) / Rotation Antagonism; format: in vivo, rat; details: Rat, PO, 1 Hour Post-Drug
Prolactin Secretion = Prolactin Secretion (in-vitro); format: cell-based; details: Rat, read-out: Prolactin Secretion ID50
[6] = Acute toxicity (LD50) in mice after a single dose; details: mouse, in vivo; for LD50 at 168 h: 7 days
revertant colonies = assay: Ames procedure (mutagenicity)
[7] = Rattus norvegicus, 1 h, 40 mg/kg po, 60 min. post-drug, read-out: Percentage Block of Avoidance, 60 min. post-drug
[8] = Rattus norvegicus, 40 mg/kg po, 24 hrs. post-drug, read-out: Percentage Block of Avoidance, 24 hrs. post-drug
[9] = Rattus norvegicus, 40 mg/kg po, at the indicated duration, read-out: Avoidance block at Duration of Sig. Activity (AB)
[10] = Rattus norvegicus, 40 mg/kg po, at time of peak effect, read-out: Avoidance block at Time of Peak Effect (AB)

Compound: CSc1ccc2c(c1)N(CCCN1CCN(CCOc3ccc(OCCCCCNC(C)C)cc3)CC1)c1ccccc1S2.O=C(O)/C=C\C(=O)O.O=C(O)/C=C\C(=O)O.O=C(O)/C=C\C(=O)O [1-[3-(2-methylthio-10H-phenothiazin-10-yl)propyl]-4-[2-[4-[5-(1-methylethyl)aminopentoxy]phenoxy]ethyl]piperazine trimaleate]
- Duration of Sig. Activity (avoidance behavior; 40 mg/kg po): 3 days
- Time of Peak Effect (avoidance behavior; 40 mg/kg po): 0.0417 days
- inhibition in vivo at 40 mg/kg (avoidance behavior; [7]): 60%
- inhibition in vivo at 40 mg/kg (avoidance behavior; [8]): 45%
- inhibition in vivo at 40 mg/kg (avoidance behavior; [9]): 35%
- inhibition in vivo at 40 mg/kg (avoidance behavior; [10]): 60%

Compound: CN(C)CCCOc1ccc(OCCN2CCN(CCCN3c4ccccc4Sc4ccc(Cl)cc43)CC2)cc1.Cl.Cl.Cl [3-[[4-[2-[4-[3-(2-chloro-10H-phenothiazin-10-yl)propyl]-1-piperazinyl]ethoxy]phenyl]oxy]-N,N-dimethylpropanamine trihydrochloride]
- Duration of Sig. Activity (avoidance behavior; 40 mg/kg po): > 6 weeks
- Time of Peak Effect (avoidance behavior; 40 mg/kg po): 1 days
- inhibition in vivo at 40 mg/kg (avoidance behavior; [7]): 50%
- inhibition in vivo at 40 mg/kg (avoidance behavior; [8]): 100%
- inhibition in vivo at 40 mg/kg (avoidance behavior; [9]): 25%
- inhibition in vivo at 40 mg/kg (avoidance behavior; [10]): 100%

Compound: CNCCCOc1ccc(OCCN2CCN(CCCN3c4ccccc4Sc4ccc(Cl)cc43)CC2)cc1.Cl.Cl.Cl [3-[[4-[2-[4-[3-(2-chloro-10H-phenothiazin-10-yl)propyl]-1-piperazinyl]ethoxy]phenyl]oxy]-N-methylpropanamine trihydrochloride]
- Duration of Sig. Activity (avoidance behavior; 40 mg/kg po): 5 weeks
- Time of Peak Effect (avoidance behavior; 40 mg/kg po): 1 days
- inhibition in vivo at 40 mg/kg (avoidance behavior; [7]): 65%
- inhibition in vivo at 40 mg/kg (avoidance behavior; [8]): 100%
- inhibition in vivo at 40 mg/kg (avoidance behavior; [9]): 25%
- inhibition in vivo at 40 mg/kg (avoidance behavior; [10]): 100%

Compound: Cl.Cl.Cl.NCCCOc1ccc(OCCN2CCN(CCCN3c4ccccc4Sc4ccc(Cl)cc43)CC2)cc1 [3-[[4-[2-[4-[3-(2-chloro-10H-phenothiazin-10-yl)propyl]-1-piperazinyl]ethoxy]phenyl]oxy]propanamine trihydrochloride]
- Duration of Sig. Activity (avoidance behavior; 40 mg/kg po): 51/2
- Time of Peak Effect (avoidance behavior; 40 mg/kg po): 3 days
- inhibition in vivo at 40 mg/kg (avoidance behavior; [7]): 40%
- inhibition in vivo at 40 mg/kg (avoidance behavior; [8]): 73%
- inhibition in vivo at 40 mg/kg (avoidance behavior; [9]): 27%
- inhibition in vivo at 40 mg/kg (avoidance behavior; [10]): 90%

Compound: CC(C)NC[C@@H](O)COc1ccc(OCCN2CCN(CCCN3c4ccccc4Sc4ccc(Cl)cc43)CC2)cc1.Cl.Cl.Cl [(R)-1-(1-methylethylamino)-3-[4-[2-[4-[3-(2-chloro-10H-phenothiazin-10-yl)propyl]piperazin-1-yl]ethoxy]phenoxy]-2-propanol, trihydrochloride]
- Duration of Sig. Activity (avoidance behavior; 40 mg/kg po): 3 weeks
- Time of Peak Effect (avoidance behavior; 40 mg/kg po): 10 days
- inhibition in vivo at 40 mg/kg (avoidance behavior; [7]): 20%
- inhibition in vivo at 40 mg/kg (avoidance behavior; [8]): 27%
- inhibition in vivo at 40 mg/kg (avoidance behavior; [9]): 27%
- inhibition in vivo at 40 mg/kg (avoidance behavior; [10]): 37%

Compound: CC(C)NC[C@H](O)COc1ccc(OCCN2CCN(CCCN3c4ccccc4Sc4ccc(C(F)(F)F)cc43)CC2)cc1 [(S)-1-(1-methylethylamino)-3-[4-[2-[4-[3-(2-trifluoromethyl)-10H-phenothiazin-10-yl)propyl]piperazin-1-yl]ethoxy]phenoxy]-2-propanol trihydrochloride]
- Duration of Sig. Activity (avoidance behavior; 25 mg/kg po): 61/2
- Time of Peak Effect (avoidance behavior; 25 mg/kg po): 3 to 10 days
- inhibition in vivo at 25 mg/kg (avoidance behavior; Rattus norvegicus, 1 h, 25 mg/kg po, 60 min. post-drug, read-out: Percentage Block of Avoidance, 60 min. post-drug): 33%
- inhibition in vivo at 25 mg/kg (avoidance behavior; Rattus norvegicus, 25 mg/kg po, 24 hrs. post-drug, read-out: Percentage Block of Avoidance, 24 hrs. post-drug): 57%
- inhibition in vivo at 25 mg/kg (avoidance behavior; Rattus norvegicus, 25 mg/kg po, at the indicated duration, read-out: Avoidance block at Duration of Sig. Activity (AB)): 37%
- inhibition in vivo at 25 mg/kg (avoidance behavior; Rattus norvegicus, 25 mg/kg po, at time of peak effect, read-out: Avoidance block at Time of Peak Effect (AB)): 77 to 87%

Compound: CN(C)CCCN1c2ccccc2Sc2ccc(Cl)cc21 [Chlorpromazine, chlorpromazine, reference compound]
- ED50 [1]: 4.6 mg/kg
- Dopamine Turnover-Brain, Limbic and Remainder ([2]; 10 mg/kg IP): Signif. .uparw.
- Dopamine Turnover-Brain, Caudate ([3]; 10 mg/kg IP): Signif. .uparw.
- ED50 [4]: 1.4 mg/kg
- minimal effective dose (Continuous Avoidance): 2 mg/kg
- ED50 [5]: 20.5 mg/kg
- IC50 (Prolactin Secretion): 0.13 µM
- ED50 (avoidance behavior; Rattus norvegicus, po, 1 h, read-out: Discrete Avoidance ABD50): 5 mg/kg

Compound: CC(C)Nc1ccc(OCCN2CCN(CCCN3c4ccccc4Sc4ccc(Cl)cc43)CC2)cc1.O=C(O)/C=C\C(=O)O [Compound B, N-[4-[2-[4-[3-(2-chloro-10H-phenothiazin-10-yl)propyl]-1-piperazinyl]ethoxy]phenyl]-α-methylethaneamine (Z)-2-butenedioate]
- LD50 at 168 h ([6]; ip): 230 mg/kg
- LD50 at 24 h ([6]; po, 24 hours): > 1000 mg/kg
- LD50 at 168 h ([6]; po): 248 mg/kg
- mutogenic effects (conclusion) (revertant colonies): free of mutogenic effects
- revertant colonies (Ames) (revertant colonies): no increase in revertant colonies
- Duration of Sig. Activity (avoidance behavior; 30 mg/kg po): 3 days
- Time of Peak Effect (avoidance behavior; 30 mg/kg po): 0.0417 days
- inhibition in vivo at 30 mg/kg (avoidance behavior; Rattus norvegicus, 1 h, 30 mg/kg po, 60 min. post-drug, read-out: Percentage Block of Avoidance, 60 min. post-drug): 100%
- ED50 (avoidance behavior; Rattus norvegicus, po, 1 h, p.o., 60 minutes pretreatment, day of administration, read-out: ABD50): 8.7 mg/kg
- inhibition in vivo at 30 mg/kg (avoidance behavior; Rattus norvegicus, 30 mg/kg po, 24 hrs. post-drug, read-out: Percentage Block of Avoidance, 24 hrs. post-drug): 70%
- inhibition in vivo at 30 mg/kg (avoidance behavior; Rattus norvegicus, 30 mg/kg po, at the indicated duration, read-out: Avoidance block at Duration of Sig. Activity (AB)): 43%
- inhibition in vivo at 30 mg/kg (avoidance behavior; Rattus norvegicus, 30 mg/kg po, at time of peak effect, read-out: Avoidance block at Time of Peak Effect (AB)): 100%
- duration of neuroleptic effect (in words) (avoidance behavior; discrete avoidance procedure): several days
- time of maximum neuroleptic activity (in words) (avoidance behavior; p.o.): on the day of administration

Compound: O=C(CCCN1CCC(O)(c2ccc(Cl)cc2)CC1)c1ccc(F)cc1 [Haloperidol, haloperidol, reference compound]
- ED50 [1]: 0.4 mg/kg
- Dopamine Turnover-Brain, Limbic and Remainder ([2]; 1 mg/kg IP): Signif. .uparw.
- Dopamine Turnover-Brain, Caudate ([3]; 1 mg/kg IP): Signif. .uparw.
- ED50 [4]: 0.02 mg/kg
- minimal effective dose (Continuous Avoidance): 0.28 mg/kg
- ED50 [5]: 0.35 mg/kg
- ED50 (avoidance behavior; Rat, PO, 1 Hour Post-Drug, read-out: Discrete Avoidance ABD50): 0.35 mg/kg

Source: patent US4471116A, “Substituted (10H-phenothiazin-10-L)-propyl-1-piperazines” (Hoffmann-La Roche Inc., priority 1982, dated 1984)
